Source: paper PMC5688144, “Assay interference and off-target liabilities of reported histone acetyltransferase inhibitors” (Nature Communications, 2017)
Entries after “also recorded” stand apart in the source; their conditions may differ.

How the values were obtained:
[1] = UPLC-MS gross compound stability in assay buffer; conditions: 25 mM sodium phosphate, pH 7.0, 30 °C, no GSH or CoA
Method: Select compounds were incubated up to 24 h for additional stability analyses. Chromatograms and mass spectra were qualitatively analyzed for the formation of new peaks and/or loss of parent peaks.

[2] = Autofluorescence counter-screen; type: physicochemical; conditions: for Fluorescence counter-screen: autofluorescence at eight fluorophore settings, 32 nM-100 μM compound
Method: Selected test compounds were assessed for autofluorescence using an adaption of published procedures. […] Final concentration of DMSO was constant at 1.0% (v/v). Compounds and fluorophore standards were transferred as 10 mM DMSO stock solutions to 384-well black polystyrene microplates via Echo 550 dispenser. The plate arrangement was purposefully designed to minimize optical crosstalk by fluorophore standards. All measurements were performed in ALARM NMR buffer (25 mM sodium phosphate, pH 7.0) at 25 °C. Aliquots of 20 μL buffer were dispensed into microplate wells via ThermoFisher Multidrop dispenser. Compounds were shaken for 1 min on a plate shaker, centrifuged briefly for 1 min at 1000×g, then allowed to incubate at RT in buffer for 10 min before measuring fluorescence intensity on a SpectraMax M3 plate reader under reduced lighting. […] Bandwidth filters were set to default mode. Fluorescence intensity was measured for each test compound using each of the eight fluorophore standard settings. Fluorophores present on each plate were then used to construct normalized fluorescence dose-responses (“fluorophore-equivalent concentrations”, FEC). Fluorescence intensity for each test compound was converted to the appropriate FEC.

human La antigen = target: T1, human La antigen (Homo sapiens, UniProt P05455, T302N); assay: ALARM NMR; type: binding; conditions: 400 μM compound; for ALARM NMR, (-) DTT: 0 mM DTT; for ALARM NMR, (+) DTT: DTT present; for ALARM NMR interpretation: with and without DTT
T1 construct: amino acids 100–324 of the human La antigen (plus T302N mutation); 6xHis (N); 6xHis (C); host or cells: Escherichia coli Rosetta cells
T1 sequence (P05455 100-324 T302N): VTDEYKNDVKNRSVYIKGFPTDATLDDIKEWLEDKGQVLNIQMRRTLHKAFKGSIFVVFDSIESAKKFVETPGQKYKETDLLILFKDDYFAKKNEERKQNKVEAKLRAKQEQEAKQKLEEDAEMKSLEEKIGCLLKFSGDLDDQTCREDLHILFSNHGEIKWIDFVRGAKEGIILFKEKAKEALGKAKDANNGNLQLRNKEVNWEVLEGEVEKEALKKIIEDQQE
Excerpt: The gene encoding amino acids 100–324 of the human La antigen (plus T302N mutation) was cloned into pET28b + vector (Novagen) with both an N- and C-terminal 6xHis tag (addgene.org, plasmid ID 90209). The sequence identity of the ALARM NMR plasmid construct was verified by Sanger sequencing of the transgene region and next-generation sequencing of the whole plasmid.
Plasmid was transformed into Escherichia coli Rosetta cells (Novagen) and cultured in M9 minimal media. The La antigen was labeled by adding ^13C-labeled amino acid precursors ([3-^13C]-α-ketobutyrate and [3,3′-^13C]-α-ketoisovalerate sodium salts; Cambridge Isotope Laboratories; 250 mg L^−1 final concentrations) to culture medium 30 min before induction with IPTG (1 mM final concentration). Bacteria were collected after incubation at 25 °C for 8 h and washed with ice-cold phosphate-buffered saline (PBS). Washed cells were lysed by French press in ice-cold lysis buffer (50 mM Tris, pH 7.6, 300 mM NaCl, 10% glycerol (v/v), 5 mM β-mercaptoethanol (BME), 5 mM imidazole, 2 mM MgCl2, benzonase, and protease inhibitor cocktail), followed by an additional brief sonication step (3 × 15 s pulse sequence) on ice. This lysed solution was centrifuged (30,000×g for 30 min, two cycles) to remove cellular debris, then loaded onto a pre-washed Ni-NTA bead column (Qiagen) kept at 4 °C and washed with buffer (50 mM Tris, pH 7.6, 300 mM NaCl, 10% glycerol (v/v), 5 mM BME, 5 mM imidazole). The La antigen was eluted with an elution buffer (50 mM Tris, pH 7.6, 300 mM NaCl, 10% glycerol (v/v), 5 mM BME, imidazole gradient ranging from 5 mM to 0.5 M). […] Aliquots were flash-frozen in liquid N2 and stored at −80 °C until further use. Before use, aliquots of ~150 μM protein were incubated in the presence of 20 mM DTT at 37 °C for 1 h, then dialyzed (25 mM sodium phosphate buffer, pH 7.0 (no DTT)) in 16 h cycles at 4 °C with constant nitrogen bubbling and with gentle stirring, for three total buffer cycles.
For standard testing conditions, the [^1H-^13C]-HMQC spectra were acquired in 25 mM sodium phosphate buffer, pH 7.0, 10% D2O (v/v; CIL) ± 400 μM test compounds delivered from the aforementioned stock solutions, and ± 20 mM non-deuterated DTT. Final concentration of DMSO was 4.0% (v/v). Reaction solutions were mixed, then centrifuged for 5 min (1000×g) in non-binding 384-well microplates at RT, then incubated at 37 °C for 1 h and then 30 °C for 15 h before obtaining spectra. Samples were checked for evidence of gross precipitation. Data were recorded at 298 K on a Bruker UltraShield 700 MHz NMR spectrometer equipped with a Bruker 1.7 mm TCI Cryoprobe and Bruker SampleJet autosampler. Samples were tested at 50 μM protein concentrations using 16 scans, 2048 complex points in F2, and 80 points in F1 using standard protein [^1H-^13C]-HMQC and water suppression pulse sequences.
Data were analyzed in TopSpin™ 3.5 (Bruker). Reactions were normalized to equivalent DMSO controls. Non-reactive compounds were identified by the absence of chemical shifts or changes in peak intensities (^13C-methyl) ± 20 mM DTT.

[3] = Fluorescence quenching counter-screen; type: physicochemical; conditions: 10 μM fluorophore; 32 nM-100 μM compound
Method: Selected test compounds were assessed for fluorescence quenching using adaptions of previously published procedures[9],[24]. Briefly, test compounds and individual fluorophore standards were incubated together. The fluorescence intensity of these mixtures was compared to the fluorescence intensity of the same fluorophore standards minus test compounds. Each microplate contained positive control columns (DMSO plus fixed concentration of a single fluorophore), negative control columns (DMSO), and experimental wells (test compounds plus fixed concentration of a single fluorophore). […] Final concentration of DMSO was constant at 2.0% (v/v). […] All measurements were performed in ALARM NMR buffer (25 mM sodium phosphate, pH 7.0) at 25 °C. Aliquots of 20 μL buffer were dispensed into microplate wells via ThermoFisher Multidrop dispenser. Microplates were shaken for 1 min on a plate shaker, centrifuged briefly for 1 min at 1000×g, then allowed to incubate at RT for 10 min before measuring fluorescence intensity on a SpectraMax M3 plate reader under reduced lighting. Instrument settings for each fluorophore were unchanged from the aforementioned autofluorescence studies.

| Compound | UPLC-MS buffer stability counter-screen [1] | Fluorescence counter-screen [2] | ALARM NMR, (-) DTT (human La antigen) | ALARM NMR, (+) DTT (human La antigen) | ALARM NMR interpretation (human La antigen) | Quenching counter-screen [3] | Fluorophore interference ([2]; fluorophore settings with autofluorescence) | ALARM NMR readout (human La antigen; overall readout) |
| --- | --- | --- | --- | --- | --- | --- | --- | --- |
| CC1=NN(c2ccc(C(=O)O)cc2)C(=O)/C1=C/c1ccc(-c2cc(C)c(C)cc2[N+](=O)[O-])o1 [Compound 1, C646] | Gross degradation observed; loss of parent peak, appearance of new peaks | Negative | positive | Negative | Thiol-reactive | Flagged (Significant fluorescence quenching was defined as signal reduction greater than 25% of the corresponding fluorophore signal at any test compound concentration) |  |  |
| O=c1c2cccnc2sn1Cc1ccc(C(F)(F)F)cc1 [Compound 3, PU141] | Grossly stable | Flagged (Significant autofluorescence was defined as compounds with FECs greater than 100 nM at any compound concentration) | Positive | Negative | Thiol-reactive | Negative | 4MU, AlexaFluor 350 |  |
| Cc1cc(O)cc(C)c1C=C1C(=O)N(Cc2ccccc2)C(=O)N(Cc2ccccc2)C1=O [Compound 4, EML425] | Grossly stable | Negative | Positive | Negative | Thiol-reactive | Flagged (Significant fluorescence quenching was defined as signal reduction greater than 25% of the corresponding fluorophore signal at any test compound concentration) |  | positive |
| COc1ccc(S(=O)(=O)ON=C2C=C(C)C(=O)C(C)=C2)cc1 [Compound 5, L002] | Gross degradation observed; loss of parent peak | Negative | Positive | Negative | Thiol-reactive | Negative |  |  |
| C=C1C(=O)O[C@H](CCC)[C@H]1C(=O)O [Compound 6, MB-3] | Grossly stable | Negative | Positive | Negative | Thiol-reactive | Flagged (Significant fluorescence quenching was defined as signal reduction greater than 25% of the corresponding fluorophore signal at any test compound concentration) |  |  |
| Clc1ccc(-c2csc(NN=C3CCCC3)n2)cc1 [Compound 7, CPTH2] | Gross degradation observed; loss of parent peak, appearance of new peaks | Negative | Positive | Negative | Thiol-reactive | Flagged (Significant fluorescence quenching was defined as signal reduction greater than 25% of the corresponding fluorophore signal at any test compound concentration) |  |  |
| CCCCCCCCCCCCCCCc1cccc(O)c1C(=O)O [Compound 14, Anacardic acid] |  | Negative | Positive | Positive | Nonspecific perturbation | Flagged (Significant fluorescence quenching was defined as signal reduction greater than 25% of the corresponding fluorophore signal at any test compound concentration) |  |  |
| CCCCCCCc1ccc(CCc2cccc(O)c2C(=O)O)cc1 [Compound 15, MG 149] |  | Negative | Positive | Positive | nonspecific protein perturbation; also recorded: potential aggregator | Flagged (Significant fluorescence quenching was defined as signal reduction greater than 25% of the corresponding fluorophore signal at any test compound concentration) |  |  |
| Cc1cc2c(C(C)C)c(O)c(O)c(C=O)c2c(O)c1-c1c(C)cc2c(C(C)C)c(O)c(O)c(C=O)c2c1O [Compound 16, Gossypol] |  | Negative | Positive | Positive | nonspecific protein perturbation | Flagged (Significant fluorescence quenching was defined as signal reduction greater than 25% of the corresponding fluorophore signal at any test compound concentration) |  |  |
| COc1cc(/C=C/c2cc(/C=C/c3ccc(O)c(OC)c3)n(-c3ccc(C(=O)[O-])cc3)n2)ccc1O.[Na+] [Compound 17, CTK7A] |  | Negative | Positive | Positive | several new peaks independent of DTT; also recorded: Nonspecific perturbation (new peaks) | Flagged (Significant fluorescence quenching was defined as signal reduction greater than 25% of the corresponding fluorophore signal at any test compound concentration) |  |  |
| Cl.Cl.O=C(O)Cn1nnc(-c2ccc(CN(CCCCOc3ccc(CN4CCCC4)cc3)CCc3ccccc3)cc2)n1 [Compound 20, TH1834] |  | Negative | Negative | Negative | Inert as tested | Flagged (Significant fluorescence quenching was defined as signal reduction greater than 25% of the corresponding fluorophore signal at any test compound concentration) |  |  |
| Garcinol [Compound 13] |  | Negative | Positive | Positive | Nonspecific perturbation | Flagged (Significant fluorescence quenching was defined as signal reduction greater than 25% of the corresponding fluorophore signal at any test compound concentration) |  |  |
